Test results reported in patent US20020137929A1, “1 - (3-heterocyclylphenyl) isothiourea, -isourea, -guanidine and -amidine herbicidal agents” (Intellectual Property Department, BASF Aktiengesellschaft, priority 1998, published 2002).

Experiments:
[1] = system: AMBEL (Ragweed, Common); assay: Postemergence herbicidal evaluation; format: in vivo, Ambrosia artemisifolia; conditions: postemergence
Summary of the method: (§1)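 Two-week seedlings sprayed postemergence at 40 psi; formulation: 1:1 acetone/water, 0.5% TWEEN 20; application ≈0.0156–0.500 kg/ha. Greenhouse grow-out, then 0–9 visual scoring at 4–5 weeks.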

[2] = system: CASOB (Sicklepod); assay: Postemergence herbicidal evaluation; format: in vivo, Cassia obtusifolia; conditions: postemergence
Summary of the method: as §1

[3] = system: CHEAL (Lambsquarters, Common); assay: Postemergence herbicidal evaluation; format: in vivo, Chenopodium album; conditions: postemergence
Summary of the method: as §1

[4] = system: IPOHE (Morningglory, Ivyleaf); assay: Postemergence herbicidal evaluation; format: in vivo, Ipomoea hederacea; conditions: postemergence
Summary of the method: as §1

[5] = system: ECHCG (Barnyardgrass); assay: Postemergence herbicidal evaluation; format: in vivo, Echinochloa crus-galli; conditions: postemergence
Summary of the method: as §1

[6] = system: GLXMAW (Soybean, Williams); assay: Postemergence herbicidal evaluation; format: in vivo, Glycine max, (L.) Merr. cv Williams; conditions: postemergence
Summary of the method: as §1

[7] = system: TRZAWR (Wheat, Winter, cv Riband); assay: Postemergence herbicidal evaluation; format: in vivo, Triticum aestivum; conditions: postemergence
Summary of the method: as §1

[8] = system: ABUTH (Velvetleaf); assay: Preemergence herbicidal evaluation; format: in vivo, Abutilon theophrasti; conditions: rate 0.2500 kg/ha; rated 4-5 weeks after treatment
Summary of the method: (§2)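 Visual 0-9 rating vs control (stand, vigor, malformation, size, chlorosis, overall appearance), scored 4-5 wk after spraying. Seeded soil cups were treated preemergence with compound in aqueous acetone, ~0.0156-0.500 kg/ha equivalent.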

[9] = system: AMBEL (Ragweed, Common); assay: Preemergence herbicidal evaluation; format: in vivo, Ambrosia artemisifolia; conditions: rate 0.2500 kg/ha; rated 4-5 weeks after treatment
Summary of the method: as §2

[10] = system: CASOB (Sicklepod); assay: Preemergence herbicidal evaluation; format: in vivo, Cassia obtusifolia; conditions: rate 0.2500 kg/ha; rated 4-5 weeks after treatment
Summary of the method: as §2

[11] = system: CHEAL (Lambsquarters, Common); assay: Preemergence herbicidal evaluation; format: in vivo, Chenopodium album; conditions: rate 0.2500 kg/ha; rated 4-5 weeks after treatment
Summary of the method: as §2

[12] = system: IPOHE (Morningglory, Ivyleaf); assay: Preemergence herbicidal evaluation; format: in vivo, Ipomoea hederacea; conditions: rate 0.2500 kg/ha; rated 4-5 weeks after treatment
Summary of the method: as §2

[13] = system: GLXMAW (Soybean, Williams); assay: Preemergence herbicidal evaluation; format: in vivo, Glycine max, (L.) Merr. cv Williams; conditions: rate 0.2500 kg/ha; rated 4-5 weeks after treatment
Summary of the method: as §2

[14] = system: ORYSAT (Rice, Tebonnet); assay: Preemergence herbicidal evaluation; format: in vivo, Oryza sativa, (L.) Tebonnet; conditions: rate 0.2500 kg/ha; rated 4-5 weeks after treatment
Summary of the method: as §2

[15] = system: MOOVA (Monochoria); assay: Preemergence weed control under flooded paddy conditions; format: in vivo, Monochoria vaginalis; conditions: rated 3-4 weeks after treatment
Summary of the method: (§3)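 Greenhouse paddy assay. Acetone/water (50/50 v/v) solutions dosed into flood water, equivalent to about 0.0313 to 0.500 kg/ha active ingredient, over seeds planted 0.5 cm deep in silt loam. Score: 0-9 visual, based on stand, vigor, malformation, size and chlorosis, 3 to 4 weeks after treatment.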

[16] = system: SAGPY (Arrowhead (Pygmaea)); assay: as above; format: in vivo, Sagittaria pygmaea; conditions: rated 3-4 weeks after treatment
Summary of the method: as §3

`CCOC(=O)CN1C(=O)C(=Cc2ccc(F)cc2)SC1=Nc1cc(-n2c(=O)cc(C(F)(F)F)n(C)c2=O)c(F)cc1Cl` [Compound 21, Ethyl 2-{{2-chloro-5-[3,6-dihydro-3-methyl-2,6-dioxo-4-(trifluoromethyl)-1(2H)-pyrimidinyl]-4-fluorophenyl}imino}-5-(p-fluorobenzylidene)-4-oxo-3-thiazolidineacetate] showed an AMBEL herbicidal rating ([1]; rate 0.0158 kg/ha) of 4.0, an AMBEL herbicidal rating ([1]; rate 0.0315 kg/ha) of 4.0 and an AMBEL herbicidal rating ([1]; rate 0.0630 kg/ha) of 6.0. It also gave a CASOB herbicidal rating ([2]; rate 0.0158 kg/ha) of 0.0, a CASOB herbicidal rating ([2]; rate 0.0315 kg/ha) of 0.0 and a CASOB herbicidal rating ([2]; rate 0.0630 kg/ha) of 0.0. It also gave a CHEAL herbicidal rating ([3]; rate 0.0158 kg/ha) of 2.0, a CHEAL herbicidal rating ([3]; rate 0.0315 kg/ha) of 5.0 and a CHEAL herbicidal rating ([3]; rate 0.0630 kg/ha) of 7.0. It also gave an IPOHE herbicidal rating ([4]; rate 0.0158 kg/ha) of 1.0, an IPOHE herbicidal rating ([4]; rate 0.0315 kg/ha) of 2.0 and an IPOHE herbicidal rating ([4]; rate 0.0630 kg/ha) of 9.0. The ECHCG herbicidal rating ([5]; rate 0.0158 kg/ha) was 1.0, the ECHCG herbicidal rating ([5]; rate 0.0315 kg/ha) was 2.0 and the ECHCG herbicidal rating ([5]; rate 0.0630 kg/ha) was 2.0. The GLXMAW herbicidal rating ([6]; rate 0.0158 kg/ha) was 2.0, the GLXMAW herbicidal rating ([6]; rate 0.0315 kg/ha) was 2.5 and the GLXMAW herbicidal rating ([6]; rate 0.0630 kg/ha) was 4.5. For the same molecule, the TRZAWR herbicidal rating ([7]; rate 0.0158 kg/ha) was 2.5, the TRZAWR herbicidal rating ([7]; rate 0.0315 kg/ha) was 3.5 and the TRZAWR herbicidal rating ([7]; rate 0.0630 kg/ha) was 3.5. The “ABUTH preemergence herbicidal rating” value [8] was 2.0, the “AMBEL preemergence herbicidal rating” value [9] was 0.0 and the “CASOB preemergence herbicidal rating” value [10] was 0.0. For the same molecule, the “CHEAL preemergence herbicidal rating” value [11] was 9.0, the “IPOHE preemergence herbicidal rating” value [12] was 0.0 and the “GLXMAW preemergence herbicidal rating” value [13] was 0.0. The “ORYSAT preemergence herbicidal rating” value [14] was 0.0, the “Herbicidal rating MOOVA” value ([15]; 0.1160 kg/ha) was 0.0 and the “Herbicidal rating MOOVA” value ([15]; 0.2310 kg/ha) was 0.0. The “Herbicidal rating MOOVA” value ([15]; 0.4630 kg/ha) was 0.0, the “Herbicidal rating SAGPY” value ([16]; 0.1160 kg/ha) was 0.0 and the “Herbicidal rating SAGPY” value ([16]; 0.2310 kg/ha) was 0.0. The “Herbicidal rating SAGPY” value ([16]; 0.4630 kg/ha) was 0.0.
